Biological target: T1, human orexin type 2 receptor (Homo sapiens, UniProt O43614)
T1 construct: expressed in transfected cells
T1 sequence (O43614 1-444): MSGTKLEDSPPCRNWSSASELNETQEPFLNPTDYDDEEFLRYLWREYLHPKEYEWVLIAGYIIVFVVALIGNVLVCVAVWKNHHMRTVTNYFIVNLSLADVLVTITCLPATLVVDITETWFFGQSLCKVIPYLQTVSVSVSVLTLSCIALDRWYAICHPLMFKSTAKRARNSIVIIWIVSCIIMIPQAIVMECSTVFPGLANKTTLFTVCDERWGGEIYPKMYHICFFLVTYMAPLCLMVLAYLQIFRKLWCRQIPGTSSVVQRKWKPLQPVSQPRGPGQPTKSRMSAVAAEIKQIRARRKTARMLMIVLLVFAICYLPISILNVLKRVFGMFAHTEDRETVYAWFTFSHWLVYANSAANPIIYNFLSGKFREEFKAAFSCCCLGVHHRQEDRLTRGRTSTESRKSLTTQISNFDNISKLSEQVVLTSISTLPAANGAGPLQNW
Assay: Measurement of orexin type 2 receptor agonist activity (calcium fluorescence, Fluo-4 AM, FDSS)
Type: cell-based
Settings: test compound 3 μM; CHO cells expressing human OX2 receptor; DMSO = 0%, orexin A (human) = 100%
How it was run: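 Agonist response scaled between vehicle (0%) and human orexin A at 10 nM final (100%), from 2-min kinetic Fluo-4 fluorescence reads. Stable hOX2R CHO-K1 clone, dye-loaded in HBSS/20 mM HEPES/0.1% BSA with 1.25 mM probenecid before compound addition.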

OX2R agonist activity (3 μM, %)	Structure (SMILES)
97%	CCS(=O)(=O)NC(C)[C@@H]1[C@H](F)CN1C(=O)[C@@H]1C[C@@]1(F)c1ccccc1-c1c(F)cccc1F (stereo partly drawn) [Example 416, N-[(1R)-1-{(2R,3R)-1-[(1S,2S)-2-(2′,6′-difluoro[1,1′-biphenyl]-2-yl)-2-fluorocyclopropane-1-carbonyl]-3-fluoroazetidin-2-yl}ethyl]ethanesulfonamide, or N-[(1S)-1-{(2R,3R)-1-[(1S,2S)-2-(2′,6′-difluoro[1,1′-biphenyl]-2-yl)-2-fluorocyclopropane-1-carbonyl]-3-fluoroazetidin-2-yl}ethyl]ethanesulfonamide]
87%	CS(=O)(=O)NC[C@H]1CN(C(=O)[C@@H]2C[C@H]2c2ccccc2-c2c(F)cccc2F)CCO1 [Example 282, N-({(2R)-4-[(1R,2R)-2-(2′,6′-difluoro[1,1′-biphenyl]-2-yl)cyclopropane-1-carbonyl]morpholin-2-yl}methyl)methanesulfonamide]
83%	CS(=O)(=O)NC1CCCN(C(=O)C2CC2c2ccccc2-c2cc(F)ccc2F)C1 (racemic) [Example 65, a mixture of rac-N-{(3R)-1-[(1R,2R)-2-(2′,5′-difluoro[1,1′-biphenyl]-2-yl)cyclopropane-1-carbonyl]piperidin-3-yl}methanesulfonamide and rac-N-{(3S)-1-[(1R,2R)-2-(2′,5′-difluoro[1,1′-biphenyl]-2-yl)cyclopropane-1-carbonyl]piperidin-3-yl}methanesulfonamide]
104%	CCS(=O)(=O)NC[C@H]1[C@@H](F)CN1C(=O)[C@@H]1C[C@@]1(F)c1ccccc1-c1c(F)cccc1F [Example 426, N-({(2S,3S)-1-[(1S,2S)-2-(2′,6′-difluoro[1,1′-biphenyl]-2-yl)-2-fluorocyclopropane-1-carbonyl]-3-fluoroazetidin-2-yl}methyl)ethanesulfonamide]
102%	CS(=O)(=O)NC1CCCN(C(=O)C2CC2c2ccccc2-c2c(F)cccc2F)C1 (racemic) [Example 39, a mixture of rac-N-{(3R)-1-[(1R,2R)-2-(2′,6′-difluoro[1,1′-biphenyl]-2-yl)cyclopropane-1-carbonyl]piperidin-3-yl}methanesulfonamide and rac-N-{(3S)-1-[(1R,2R)-2-(2′,6′-difluoro[1,1′-biphenyl]-2-yl)cyclopropane-1-carbonyl]piperidin-3-yl}methanesulfonamide]
94%	CS(=O)(=O)NC1CCN(C(=O)C2CC2c2c(F)cccc2-c2c(F)cccc2F)C1 (stereo not drawn) [Example 210, N-{1-[2-(2′,3,6′-trifluoro[1,1′-biphenyl]-2-yl)cyclopropane-1-carbonyl]pyrrolidin-3-yl}methanesulfonamide optical isomer]
100%	CC1(C(=O)N2CC[C@H](NS(C)(=O)=O)C2)CC1c1ccccc1-c1c(F)cccc1F (stereo partly drawn) [Example 247, N-{(3S)-1-[(1R,2S)-2-(2′,6′-difluoro[1,1′-biphenyl]-2-yl)-1-methylcyclopropane-1-carbonyl]pyrrolidin-3-yl}methanesulfonamide, or N-{(3S)-1-[(1S,2R)-2-(2′,6′-difluoro[1,1′-biphenyl]-2-yl)-1-methylcyclopropane-1-carbonyl]pyrrolidin-3-yl}methanesulfonamide]
96%	CC1(C)C(C(=O)N2CCC[C@H](NS(C)(=O)=O)CC2)C1c1ccccc1-c1c(F)cccc1F (mixture of isomers) [Example 288, a mixture of N-{(4S)-1-[(1R,2R)-2-(2′,6′-difluoro[1,1′-biphenyl]-2-yl)-2,2-dimethylcyclopropane-1-carbonyl]azepan-4-yl}methanesulfonamide and N-{(4S)-1-[(1S,3S)-3-(2′,6′-difluoro[1,1′-biphenyl]-2-yl)-2,2-dimethylcyclopropane-1-carbonyl]azepan-4-yl}methanesulfonamide]

Second part, the molecule before the results:

Structure (SMILES)	OX2R agonist activity (3 μM, %)
CCS(=O)(=O)NC(C)[C@@H]1CCN1C(=O)[C@@H]1C[C@@]1(F)c1ccccc1-c1c(F)cccc1F (stereo partly drawn) [Example 363, N-[(1R)-1-{(2S)-1-[(1S,2S)-2-(2′,6′-difluoro[1,1′-biphenyl]-2-yl)-2-fluorocyclopropane-1-carbonyl]azetidin-2-yl}ethyl]ethanesulfonamide, or N-[(1S)-1-{(2S)-1-[(1S,2S)-2-(2′,6′-difluoro[1,1′-biphenyl]-2-yl)-2-fluorocyclopropane-1-carbonyl]azetidin-2-yl}ethyl]ethanesulfonamide]	98%
CS(=O)(=O)NC[C@@H]1CCN1C(=O)[C@@H]1C[C@H]1c1ccccc1-c1c(F)ccc(F)c1F [Example 408, N-({(2S)-1-[(1R,2R)-2-(2′,3′,6′-trifluoro[1,1′-biphenyl]-2-yl)cyclopropane-1-carbonyl]azetidin-2-yl}methyl)methanesulfonamide]	73%
CS(=O)(=O)N[C@@H]1CN(C(=O)C2CC2c2ccccc2-c2c(F)cccc2F)CC[C@@H]1F (stereo partly drawn) [Example 216, N-{(3R,4S)-1-[(1R,2R)-2-(2′,6′-difluoro[1,1′-biphenyl]-2-yl)cyclopropane-1-carbonyl]-4-fluoropiperidin-3-yl}methanesulfonamide, or N-{(3R,4S)-1-[(1S,2S)-2-(2′,6′-difluoro[1,1′-biphenyl]-2-yl)cyclopropane-1-carbonyl]-4-fluoropiperidin-3-yl}methanesulfonamide]	99%
CN(C)S(=O)(=O)NC1CCN(C(=O)C2CC2c2ccccc2-c2c(F)cccc2F)C1 (racemic) [Example 113, a mixture of rac-N′-{(3R)-1-[(1R,2R)-2-(2′,6′-difluoro[1,1′-biphenyl]-2-yl)cyclopropane-1-carbonyl]pyrrolidin-3-yl}-N,N-dimethylsulfuric diamide and rac-N′-{(3S)-1-[(1R,2R)-2-(2′,6-difluoro[1,1′-biphenyl]-2-yl)cyclopropane-1-carbonyl]pyrrolidin-3-yl}-N,N-dimethylsulfuric diamide]	100%
Cc1ccccc1-c1ccccc1C1CC1C(=O)N1CCCC(NS(C)(=O)=O)C1 (racemic) [Example 66, a mixture of rac-N-{(3R)-1-[(1R,2R)-2-(2′-methyl[1,1′-biphenyl]-2-yl)cyclopropane-1-carbonyl]piperidin-3-yl}methanesulfonamide and rac-N-{(3S)-1-[(1R,2R)-2-(2′-methyl[1,1′-biphenyl]-2-yl)cyclopropane-1-carbonyl]piperidin-3-yl}methanesulfonamide]	52%
CS(=O)(=O)N[C@H]1CCCN(C(=O)C2CC2(F)c2ccccc2-c2c(F)cccc2F)C1 (single isomer, unassigned) [Example 306, N-{(3S)-1-[(1S,2S)-2-(2′,6′-difluoro [1,1′-biphenyl]-2-yl)-2-fluorocyclopropane-1-carbonyl]piperidin-3-yl}methanesulfonamide, or N-{(3S)-1-[(1R,2R)-2-(2′,6′-difluoro[1,1′-biphenyl]-2-yl)-2-fluorocyclopropane-1-carbonyl]piperidin-3-yl}methanesulfonamide]	93%
CCS(=O)(=O)NC[C@@H]1CCN1C(=O)[C@@H]1C[C@H]1c1ccccc1-c1c(F)cccc1F [Example 362, N-({(2S)-1-[(1R,2R)-2-(2′,6′-difluoro[1,1′-biphenyl]-2-yl)cyclopropane-1-carbonyl]azetidin-2-yl}methyl)ethanesulfonamide]	89%
CS(=O)(=O)NC[C@@H]1[C@H](F)CN1C(=O)C1(CC#N)CC1c1ccccc1-c1c(F)cccc1F (stereo partly drawn) [Example 428, N-({(2R,3R)-1-[(1R,2R)-1-(cyanomethyl)-2-(2′,6′-difluoro[1,1′-biphenyl]-2-yl)cyclopropane-1-carbonyl]-3-fluoroazetidin-2-yl}methyl)methanesulfonamide, or N-({(2R,3R)-1-[(1S,2S)-1-(cyanomethyl)-2-(2′,6′-difluoro[1,1′-biphenyl]-2-yl)cyclopropane-1-carbonyl]-3-fluoroazetidin-2-yl}methyl)methanesulfonamide]	53%
CS(=O)(=O)NC1CCCN(C(=O)C2CC2c2cc(F)ccc2-c2c(F)cccc2F)C1 (racemic) [Example 98, a mixture of rac-N-{(3R)-1-[(1R,2R)-2-(2′,4,6′-trifluoro[1,1′-biphenyl]-2-yl)cyclopropane-1-carbonyl]piperidin-3-yl}methanesulfonamide and rac-N-{(3S)-1-[(1R,2R)-2-(2′,4,6′-trifluoro[1,1′-biphenyl]-2-yl)cyclopropane-1-carbonyl]piperidin-3-yl}methanesulfonamide]	56%
CS(=O)(=O)NC1CCCN(C(=O)C2CC2c2cc(F)ccc2-c2c(F)cccc2F)CC1 (racemic) [Example 96, a mixture of rac-N-{(4R)-1-[(1R,2R)-2-(2′,4,6′-trifluoro[1,1′-biphenyl]-2-yl)cyclopropane-1-carbonyl]azepan-4-yl}methanesulfonamide and rac-N-{(4S)-1-[(1R,2R)-2-(2′,4,6′-trifluoro[1,1′-biphenyl]-2-yl)cyclopropane-1-carbonyl]azepan-4-yl}methanesulfonamide]	62%

— patent US20250250230A1, “HETEROCYCLIC COMPOUND” (TAKEDA PHARMACEUTICAL COMPANY LIMITED, priority 2022, published 2025)
